Experimental data taken from ChEMBL document CHEMBL1201862, “PubChem BioAssay data set” (2004).
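Assay format: 96-well plates, 48-hour exposure. Here, GI50 denotes the concentration required for 50% inhibition of growth.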 The source made the active and inactive calls. Rule as the data show it: active = GI50 up to about 1.1 µM and inactive = higher.

Legend:
Assay in all cases: growth of human tumour cells (NCI), 48 h
LOX IMVI = test system: LOX IMVI
NCI-H460 = test system: NCI-H460
NCI-H23 = test system: NCI-H23
KM12 = test system: KM12
CAKI-1 = test system: CAKI-1
SF-539 = test system: SF-539
HOP-62 = test system: HOP-62
SF-295 = test system: SF-295
SF-268 = test system: SF-268
HT-29 = test system: HT-29
OVCAR-8 = test system: OVCAR-8
UACC-257 = test system: UACC-257
HL-60 = test system: HL-60
K562 = test system: K562
SR = test system: SR
ACHN = test system: ACHN
U-251 = test system: U-251
M14 = test system: M14
SW-620 = test system: SW-620
KM-20L2 = test system: KM-20L2
786-0 = test system: 786-0
SNB-75 = test system: SNB-75
COLO 205 = test system: COLO 205
EKVX = test system: EKVX
HOP-18 = test system: HOP-18
NCI-H522 = test system: NCI-H522
SK-OV-3 = test system: SK-OV-3
DMS-114 = test system: DMS-114
UO-31 = test system: UO-31
SK-MEL-5 = test system: SK-MEL-5
RPMI-8226 = test system: RPMI-8226
TK-10 = test system: TK-10
DLD-1 = test system: DLD-1
OVCAR-4 = test system: OVCAR-4
MOLT-4 = test system: MOLT-4
HOP-92 = test system: HOP-92
A549 = test system: A549
XF498 = test system: XF498
IGROV-1 = test system: IGROV-1
Malme-3M = test system: Malme-3M
RXF 393 = test system: RXF 393
LXFL 529 = test system: LXFL 529
HCC 2998 = test system: HCC 2998
A498 = test system: A498
SN12C = test system: SN12C
RXF 631 = test system: RXF 631
UACC-62 = test system: UACC-62
SK-MEL-28 = test system: SK-MEL-28
OVCAR-5 = test system: OVCAR-5
DMS-273 = test system: DMS-273
SNB-78 = test system: SNB-78
NCI-H226 = test system: NCI-H226
M19-MEL = test system: M19-MEL
SNB-19 = test system: SNB-19
HCT-116 = test system: HCT-116
OVCAR-3 = test system: OVCAR-3
SK-MEL-2 = test system: SK-MEL-2
HCT-15 = test system: HCT-15
CCRF-CEM = test system: CCRF-CEM

Compound: Nc1n/c(=N\c2ccccc2)ss1
- GI50 (LOX IMVI): 51.4 µM (inactive)
- GI50 (NCI-H460): > 100 µM (inactive)
- GI50 (NCI-H23): > 100 µM (inactive)
- GI50 (KM12): > 100 µM (inactive)
- GI50 (CAKI-1): > 100 µM (inactive)
- GI50 (SF-539): > 100 µM (inactive)
- GI50 (HOP-62): > 100 µM (inactive)
- GI50 (SF-295): > 100 µM (inactive)
- GI50 (SF-268): > 100 µM (inactive)
- GI50 (HT-29): > 100 µM (inactive)
- GI50 (OVCAR-8): > 100 µM (inactive)
- GI50 (UACC-257): > 100 µM (inactive)
- GI50 (HL-60): 19.9 µM (inactive)
- GI50 (K562): 78 µM (inactive)
- GI50 (SR): > 100 µM (inactive)
- GI50 (ACHN): > 100 µM (inactive)
- GI50 (U-251): > 100 µM (inactive)
- GI50 (M14): > 100 µM (inactive)
- GI50 (SW-620): > 100 µM (inactive)
- GI50 (KM-20L2): > 100 µM (inactive)
- GI50 (786-0): > 100 µM (inactive)
- GI50 (SNB-75): > 100 µM (inactive)
- GI50 (COLO 205): > 100 µM (inactive)
- GI50 (EKVX): > 100 µM (inactive)
- GI50 (HOP-18): > 100 µM (inactive)
- GI50 (NCI-H522): > 100 µM (inactive)
- GI50 (SK-OV-3): > 100 µM (inactive)
- GI50 (DMS-114): > 100 µM (inactive)
- GI50 (UO-31): > 100 µM (inactive)
- GI50 (SK-MEL-5): > 100 µM (inactive)
- GI50 (RPMI-8226): > 100 µM (inactive)
- GI50 (TK-10): > 100 µM (inactive)
- GI50 (DLD-1): > 100 µM (inactive)
- GI50 (OVCAR-4): > 100 µM (inactive)
- GI50 (MOLT-4): > 100 µM (inactive)
- GI50 (HOP-92): > 100 µM (inactive)
- GI50 (A549): > 100 µM (inactive)
- GI50 (XF498): > 100 µM (inactive)
- GI50 (IGROV-1): > 100 µM (inactive)
- GI50 (Malme-3M): > 100 µM (inactive)
- GI50 (RXF 393): > 100 µM (inactive)
- GI50 (LXFL 529): > 100 µM (inactive)
- GI50 (HCC 2998): > 100 µM (inactive)
- GI50 (A498): > 100 µM (inactive)
- GI50 (SN12C): > 100 µM (inactive)
- GI50 (RXF 631): > 100 µM (inactive)
- GI50 (UACC-62): > 100 µM (inactive)
- GI50 (SK-MEL-28): > 100 µM (inactive)
- GI50 (OVCAR-5): > 100 µM (inactive)
- GI50 (DMS-273): > 100 µM (inactive)
- GI50 (SNB-78): > 100 µM (inactive)
- GI50 (NCI-H226): > 100 µM (inactive)
- GI50 (M19-MEL): 99.5 µM (inactive)
- GI50 (SNB-19): > 100 µM (inactive)
- GI50 (HCT-116): > 100 µM (inactive)
- GI50 (OVCAR-3): > 100 µM (inactive)

Compound: O=C(c1cccc2ccccc12)N1CCC(C2CCN(C(=O)c3cccc4ccccc34)CC2)CC1
- GI50 (LOX IMVI): > 100 µM (inactive)
- GI50 (NCI-H460): > 100 µM (inactive)
- GI50 (SK-MEL-2): > 100 µM (inactive)
- GI50 (NCI-H23): > 100 µM (inactive)
- GI50 (KM12): > 100 µM (inactive)
- GI50 (CAKI-1): > 100 µM (inactive)
- GI50 (SF-539): > 100 µM (inactive)
- GI50 (HOP-62): > 100 µM (inactive)
- GI50 (SF-295): > 100 µM (inactive)
- GI50 (SF-268): > 100 µM (inactive)
- GI50 (HT-29): > 100 µM (inactive)
- GI50 (OVCAR-8): > 100 µM (inactive)
- GI50 (UACC-257): > 100 µM (inactive)
- GI50 (HL-60): 65.5 µM (inactive)
- GI50 (K562): > 100 µM (inactive)
- GI50 (SR): > 100 µM (inactive)
- GI50 (ACHN): > 100 µM (inactive)
- GI50 (HCT-15): > 100 µM
- GI50 (U-251): > 100 µM (inactive)
- GI50 (M14): > 100 µM (inactive)
- GI50 (SW-620): > 100 µM (inactive)
- GI50 (KM-20L2): > 100 µM (inactive)
- GI50 (786-0): > 100 µM (inactive)
- GI50 (SNB-75): 23.8 µM (inactive)
- GI50 (COLO 205): > 100 µM (inactive)
- GI50 (EKVX): > 100 µM (inactive)
- GI50 (HOP-18): > 100 µM (inactive)
- GI50 (NCI-H522): > 100 µM (inactive)
- GI50 (SK-OV-3): > 100 µM (inactive)
- GI50 (DMS-114): > 100 µM (inactive)
- GI50 (UO-31): > 100 µM (inactive)
- GI50 (SK-MEL-5): > 100 µM (inactive)
- GI50 (RPMI-8226): 91.8 µM (inactive)
- GI50 (TK-10): > 100 µM (inactive)
- GI50 (DLD-1): > 100 µM (inactive)
- GI50 (MOLT-4): > 100 µM (inactive)
- GI50 (HOP-92): > 100 µM (inactive)
- GI50 (A549): > 100 µM (inactive)
- GI50 (XF498): 89.3 µM (inactive)
- GI50 (CCRF-CEM): > 100 µM (inactive)
- GI50 (IGROV-1): > 100 µM (inactive)
- GI50 (Malme-3M): > 100 µM (inactive)
- GI50 (RXF 393): > 100 µM (inactive)
- GI50 (LXFL 529): > 100 µM (inactive)
- GI50 (A498): > 100 µM (inactive)
- GI50 (SN12C): > 100 µM (inactive)
- GI50 (RXF 631): > 100 µM (inactive)
- GI50 (UACC-62): > 100 µM (inactive)
- GI50 (SK-MEL-28): > 100 µM (inactive)
- GI50 (OVCAR-5): 99.1 µM (inactive)
- GI50 (DMS-273): > 100 µM (inactive)
- GI50 (SNB-78): 70.1 µM (inactive)
- GI50 (NCI-H226): > 100 µM (inactive)
- GI50 (M19-MEL): > 100 µM (inactive)
- GI50 (HCT-116): > 100 µM (inactive)
- GI50 (OVCAR-3): > 100 µM (inactive)

Compound: COc1ccc(/C=C/c2cc(OC)c(OC)c(OC)c2)cc1OC
- GI50 (LOX IMVI): > 100 µM (inactive)
- GI50 (NCI-H460): > 100 µM (inactive)
- GI50 (SK-MEL-2): > 100 µM (inactive)
- GI50 (NCI-H23): > 100 µM (inactive)
- GI50 (KM12): > 100 µM (inactive)
- GI50 (CAKI-1): > 83.6 µM (inactive)
- GI50 (SF-539): > 86.1 µM (inactive)
- GI50 (HOP-62): 44 µM (inactive)
- GI50 (SF-295): 65.2 µM (inactive)
- GI50 (SF-268): > 67.9 µM (inactive)
- GI50 (HT-29): > 72.8 µM (inactive)
- GI50 (OVCAR-8): > 100 µM (inactive)
- GI50 (UACC-257): > 100 µM (inactive)
- GI50 (HL-60): > 70.3 µM (inactive)
- GI50 (K562): > 100 µM (inactive)
- GI50 (SR): > 100 µM (inactive)
- GI50 (ACHN): > 100 µM (inactive)
- GI50 (HCT-15): > 56.2 µM
- GI50 (U-251): > 100 µM (inactive)
- GI50 (M14): > 100 µM (inactive)
- GI50 (SW-620): > 100 µM (inactive)
- GI50 (KM-20L2): > 100 µM (inactive)
- GI50 (786-0): > 76.9 µM (inactive)
- GI50 (SNB-75): > 44.3 µM (inactive)
- GI50 (COLO 205): > 100 µM (inactive)
- GI50 (EKVX): > 100 µM (inactive)
- GI50 (HOP-18): > 100 µM (inactive)
- GI50 (NCI-H522): 68.5 µM (inactive)
- GI50 (SK-OV-3): > 100 µM (inactive)
- GI50 (DMS-114): > 100 µM (inactive)
- GI50 (UO-31): > 92.7 µM (inactive)
- GI50 (SK-MEL-5): > 74.5 µM (inactive)
- GI50 (RPMI-8226): > 100 µM (inactive)
- GI50 (TK-10): > 100 µM (inactive)
- GI50 (DLD-1): 81.5 µM (inactive)
- GI50 (OVCAR-4): > 100 µM (inactive)
- GI50 (MOLT-4): > 100 µM (inactive)
- GI50 (HOP-92): 80.5 µM (inactive)
- GI50 (A549): > 100 µM (inactive)
- GI50 (XF498): 77.8 µM (inactive)
- GI50 (CCRF-CEM): > 100 µM (inactive)
- GI50 (IGROV-1): > 100 µM (inactive)
- GI50 (Malme-3M): > 100 µM (inactive)
- GI50 (RXF 393): > 63 µM (inactive)
- GI50 (LXFL 529): 78.9 µM (inactive)
- GI50 (HCC 2998): > 100 µM (inactive)
- GI50 (A498): > 74.1 µM (inactive)
- GI50 (SN12C): > 100 µM (inactive)
- GI50 (RXF 631): > 100 µM (inactive)
- GI50 (UACC-62): > 80.7 µM (inactive)
- GI50 (SK-MEL-28): 55.6 µM (inactive)
- GI50 (OVCAR-5): > 100 µM (inactive)
- GI50 (DMS-273): > 82.2 µM (inactive)
- GI50 (SNB-78): 36.1 µM (inactive)
- GI50 (NCI-H226): > 100 µM (inactive)
- GI50 (SNB-19): > 100 µM (inactive)
- GI50 (HCT-116): > 100 µM (inactive)
- GI50 (OVCAR-3): > 100 µM (inactive)
